Experimental data taken from PubChem BioAssay AID179 (DTP/NCI, 2004).
“And” between values parts separate entries of the source, which are not always exact repeats. Identical values can stand only once. The source made the active and inactive calls.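 Rule for the calls: active = compounds giving half or more protection of infected cells from virus-caused growth loss, again on retest; inactive = the rest.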 Where a SMILES comes first, the peptide text is derived from it.

System: CEM cells HIV-1 protection, formazan growth assay
Experiment: NCI AIDS Antiviral Assay
Settings: for IC50: measured here: growth of uninfected CEM cells
Method in brief: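 Human CEM cells, uninfected and HIV-1-infected, received five drug concentrations, and growth was read by soluble formazan assay. Compounds giving at least 50% protection were retested; reproducible 100% protection defined confirmed active.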

| Structure (SMILES) | EC50 [µM] | IC50 | outcome |
| --- | --- | --- | --- |
| N=C1/C(=C/c2ccco2)C(=O)N=C2SC=NN12 | > 200 | > 200 µM |  |
| CCN(CC)C(=S)SCC(=O)Nc1nc2c(s1)CCCC2 | > 20.9 | > 20.9 µM |  |
| CC(C)OP(=O)(OC(C)C)/C(F)=N/Nc1ccc([N+](=O)[O-])cc1 | > 38.9 | > 38.9 µM |  |
| COc1ccc(NS(=O)c2ccc(Cl)cc2)cc1 (stereo not given) | > 200 | 17.4 µM |  |
| CC(=O)CC(=O)Nc1ccccc1[N+](=O)[O-] |  |  | inactive |
| Cc1ccc2nc(CN3CCCCC3)cc(=O)n2c1 | > 151 | > 151 µM |  |
| O=C(O)CCCc1ccc([As](=O)(O)O)cc1[N+](=O)[O-] | > 200 | > 200 µM |  |
| Cc1ccc2c(c1)C=CC1(O2)N(c2ccccc2)C(=S)OC1(C)C (stereo not given) | > 200 | 22.4 µM |  |
| CN(C)Cc1cc(C(=O)/C=C/c2cccc(Cl)c2)cc(CN(C)C)c1O |  |  | inactive |
| CCC(=O)NC1=CC(=O)C(=O)c2cccnc21 |  |  | inactive |
| N#C/C(=C\c1ccc(O)c(O)c1)C(=O)NCN1CCN(C(=O)/C(C#N)=C/c2ccc(O)c(O)c2)CC1 | > 200 | 19.1 µM |  |
| O=c1n(-c2ccccc2)c(=O)n(-c2ccccc2)c(=O)n1-c1ccccc1 | > 200 | > 200 µM |  |
| OCC1OC(Oc2cc(O)cc(CCc3ccc(O)c(O)c3)c2)C(O)C(O)C1O (stereo not given) | > 617 | 41.7 µM |  |
| COC(CCC[N+](C)(C)C)CC[N+](C)(C)C (stereo not given) | > 100 | > 100 µM |  |
| CCC1(O)C(=O)OCc2c1cc1n(c2=O)Cc2cc3cc(N)ccc3nc2-1 (stereo not given) | > 0.1 | 0.0794 µM |  |
| C=C1CC[C@@H](Br)C(C)(C)[C@]12CCC(C)(O)C(Cl)C2 (stereo not given in full) | > 77.6 | > 77.6 µM |  |
| O=c1cc(-c2ccccc2)oc2cc(O)ccc12 | > 186 | 85.1 µM |  |
| Cn1c2c(c3ccccc31)C1CCCCCCC1C1C(=O)OC(=O)C21 (stereo not given) |  |  | inactive |
| NC(N)=NS(=O)(=O)c1ccc(Nc2c3ccccc3nc3c(C(=O)N4CCN(CCO)CC4)ccc(Cl)c23)cc1 | > 38 | > 38 µM |  |
| CC1(SCC(N)C(=O)O)CC(=O)NC1=O (stereo not given) | > 200 | > 200 µM |  |
| Oc1ccccc1/C=N\NC(=S)Nc1ccc2cn[nH]c2c1 | > 200 | 126 µM |  |
| CCCc1cc(=O)oc2c3c(cc(OC(C)C)c12)O[C@H](C)[C@H](C)[C@@H]3O | > 200 | 49 µM |  |

| Structure (SMILES) | EC50 [µM] | IC50 | outcome |
| --- | --- | --- | --- |
| O=C(N=Nc1c(O)[nH]c2ccccc12)c1ccccc1O | > 25.1 | 15.5 µM |  |
| Nc1nc2c(ncn2CC2OCC(CO)O2)c(=O)[nH]1 (stereo not given) | > 2950 | 1820 µM and 275 µM |  |
| CCOc1ccc2nc(NC(=O)C(=O)C(c3cnc4ccccc4n3)[N+](=O)[O-])sc2c1 (stereo not given) | > 155 | > 155 µM |  |
| COP(=O)(OC)/C(C#N)=C/c1ccoc1 | > 1100 | > 1100 µM |  |
| C=CCNC(=O)CN(CC(=O)O)C1CCCCC1N(CC(=O)O)CC(=O)O (stereo not given) | > 200 | > 200 µM |  |
| C/C(=N/Nc1ccc([N+](=O)[O-])cc1[N+](=O)[O-])C(CC(C(=O)Nc1ccccc1C)/C(C)=N\Nc1ccc([N+](=O)[O-])cc1[N+](=O)[O-])C(=O)Nc1ccccc1C (stereo not given) | > 9.55 | > 9.55 µM |  |
| N#Cc1nc(-c2ccsc2)oc1N | > 200 | > 200 µM |  |
| Nc1ncnc2c1ccn2CC#CCO | > 200 | > 200 µM |  |
| CCCCCCc1ccc(O)cc1O | > 200 | 74.1 µM |  |
| O=C1NC(N/N=C\c2ccccc2)=N/C1=C/c1ccc(Cl)cc1 |  |  | inactive |
| CC1(C)CC(=O)c2c([nH]c(=S)c(C#N)c2-c2ccc(Br)cc2)C1 | > 200 | 43.7 µM |  |
| O=C1CS(=O)(=O)C(c2ccc(Cl)cc2)N1N1C(=O)CS(=O)(=O)C1c1ccc(Cl)cc1 (stereo not given) | > 200 | 5.75 µM |  |
| COC(=O)CNC(=O)CSc1nnc(COc2ccc(Cl)cc2)n1-c1ccccc1 | > 200 | 60.3 µM |  |
| Nc1c(N=Nc2ccc(/C=C/c3ccc(N=Nc4cc(S(=O)(=O)O)c5cccnc5c4N)cc3S(=O)(=O)O)c(S(=O)(=O)O)c2)cc(S(=O)(=O)O)c2cccnc12 | > 4.68 | > 4.68 µM |  |
| Cc1ccsc1C(=S)Nc1ccc(Cl)c(C(=O)OC(C(C)C)C(C)C)c1 | 0.309 | 21.4 µM |  |
| COC1=CC(=O)c2nc(COC(C)=O)ccc2C1=O |  |  | inactive |
| CCC(C)C(N)C(=O)NC(C(=O)NC(CO)C(=O)NC(C)C(=O)NC(CO)C(=O)NC(C(=O)NC(CCCCN)C(=O)NC(CCCCN)C(=O)NC(CO)C(=O)NC(Cc1ccccc1)C(=O)O)C(C)CC)C(C)CC (stereo not given) (H-IISASIKKSF-OH; configuration not given here) |  |  | inactive |
| CC(C)(C)OC(=O)NC(CS(=O)(=O)O)C(=O)O (stereo not given) | > 200 | > 200 µM |  |
| COc1cc(Cc2nnc(SC)nc2C)cc(OC)c1OC | 10 | 22.4 µM |  |
| CCOC(=O)c1nc2ccccc2nc1Oc1cc(OC)c(OC)c(OC)c1 | > 100 | > 100 µM |  |
| CCCCCC/C=C\CCCCCCCCCC1=CC(=O)C=C(OC)C1=O | > 9.55 | > 9.55 µM |  |
| COc1ccccc1C(=O)Nc1ccc(Cl)c(C(=O)OC(C)C)c1 |  |  | active |
